# Active and inactive are the calls of the source.
# Experiments:
# [1] = NIH-3T3 fibroblast cytotoxicity, dose response, cytotoxicity control, cell-based, fluorescence, Alamar Blue, secondary assay (AID 2327); assay type: functional;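 note: NIH-3T3 mouse fibroblasts cultured with fluconazole at 8 µg/mL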
# [2] = C. albicans growth with fluconazole, confirmation, fluorescence, retest (AID 2467); assay type: functional, cell-based
# Fatty acid synthase = Fatty acid synthase (Homo sapiens, UniProt P49327); assay: FAS thioesterase domain inhibitors, dose response, biochemical, kinetic fluorescence intensity (AID 624326); assay type: functional;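 note: rate of fluorescence rise from hydrolysis of a fluorogenic O-methyl fluorescein ester substrate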
# [3] = system: Streptococcus sp. 'group A'; assay: growth inhibition of control SK(-) GAS strain, dose response, counter-screen for streptokinase expression inhibitor project, luminescence, kanamycin, BacTiterGlo, confirmation (AID 1900); assay type: functional, organism-based
# Streptokinase A = biological target: T1, Streptokinase A (Streptococcus pyogenes serotype M1, UniProt P10520); assay: S. pyogenes streptokinase expression inhibitors, potency, dose response, plasminogen activation absorbance, OD405 (AID 1914); assay type: functional, Streptococcus pyogenes M1 GAS;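 note: secreted streptokinase activity via plasminogen activation per viability signal from cell pellet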
# T1 sequence (P10520 whole entry): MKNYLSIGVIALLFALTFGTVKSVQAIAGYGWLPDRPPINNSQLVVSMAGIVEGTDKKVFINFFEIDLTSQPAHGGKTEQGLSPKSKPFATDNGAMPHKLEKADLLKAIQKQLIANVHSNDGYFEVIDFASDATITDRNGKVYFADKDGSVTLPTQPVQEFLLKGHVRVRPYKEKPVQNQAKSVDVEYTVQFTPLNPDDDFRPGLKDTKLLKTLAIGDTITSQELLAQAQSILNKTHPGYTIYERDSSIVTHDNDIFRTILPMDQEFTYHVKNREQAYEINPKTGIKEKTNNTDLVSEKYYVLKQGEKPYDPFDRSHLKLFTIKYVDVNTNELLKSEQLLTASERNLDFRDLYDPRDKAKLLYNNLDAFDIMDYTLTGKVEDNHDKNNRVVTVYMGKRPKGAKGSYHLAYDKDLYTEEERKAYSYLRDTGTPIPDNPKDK
# Streptococcus = assay: Group A Streptococcus viability loss, dose response, counter-screen for streptokinase expression inhibitor project, luminescence, BacTiterGlo (AID 1915); assay type: functional, organism-based;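 note: potency for reduction of bacterial viability or growth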
# [4] = biological target: T2, Heat shock factor protein 1 (Mus musculus, UniProt P38532); assay: HSF1 potentiators in luciferase reporter cells, confirmation, cell-based, NIH3T3, luminescence, dose retest (AID 435004); assay type: functional;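 note: stress induced by proteasome inhibitor MG132 added 30 min after compound; luciferase reporter driven by HSF1 response element in NIH3T3 cells; actives raise luminescence as potentiators of the MG132 stress response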
# T2 sequence (P38532 whole entry): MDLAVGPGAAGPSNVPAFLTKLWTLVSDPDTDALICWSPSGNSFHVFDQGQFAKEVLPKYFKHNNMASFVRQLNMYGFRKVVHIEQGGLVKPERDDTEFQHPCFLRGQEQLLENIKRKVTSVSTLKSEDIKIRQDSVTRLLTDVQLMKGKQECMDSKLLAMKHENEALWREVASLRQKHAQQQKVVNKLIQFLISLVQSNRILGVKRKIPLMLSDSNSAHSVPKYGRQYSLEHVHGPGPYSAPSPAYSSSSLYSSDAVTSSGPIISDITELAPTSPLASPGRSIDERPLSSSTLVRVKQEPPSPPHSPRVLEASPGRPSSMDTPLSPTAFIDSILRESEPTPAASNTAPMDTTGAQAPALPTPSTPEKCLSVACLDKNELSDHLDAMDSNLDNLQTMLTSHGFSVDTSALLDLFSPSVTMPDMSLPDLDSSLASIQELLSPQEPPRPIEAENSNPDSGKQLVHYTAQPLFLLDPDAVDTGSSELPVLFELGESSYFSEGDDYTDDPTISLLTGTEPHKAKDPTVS
# cells = assay type: functional
# Estrogen receptor = biological target: T3, Estrogen receptor (Homo sapiens, UniProt P03372);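 note: potency for inhibiting coactivator peptide recruitment to the receptor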
# T3 sequence (P03372 whole entry): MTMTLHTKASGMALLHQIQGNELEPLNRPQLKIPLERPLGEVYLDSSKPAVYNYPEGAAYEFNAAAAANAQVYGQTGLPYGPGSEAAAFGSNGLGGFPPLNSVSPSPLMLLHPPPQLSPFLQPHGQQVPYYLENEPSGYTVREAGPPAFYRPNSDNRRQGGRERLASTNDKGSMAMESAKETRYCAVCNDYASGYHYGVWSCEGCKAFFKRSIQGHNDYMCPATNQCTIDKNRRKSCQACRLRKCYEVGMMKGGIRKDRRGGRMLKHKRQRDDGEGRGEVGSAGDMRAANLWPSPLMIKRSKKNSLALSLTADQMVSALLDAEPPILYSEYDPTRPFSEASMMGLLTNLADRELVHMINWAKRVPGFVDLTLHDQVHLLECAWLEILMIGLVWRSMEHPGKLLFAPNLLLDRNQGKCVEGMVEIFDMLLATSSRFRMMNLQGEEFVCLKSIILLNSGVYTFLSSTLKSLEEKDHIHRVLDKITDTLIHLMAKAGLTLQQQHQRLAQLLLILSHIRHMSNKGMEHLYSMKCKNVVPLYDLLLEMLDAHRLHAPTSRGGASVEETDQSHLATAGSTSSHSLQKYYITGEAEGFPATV
# Aminopeptidase N = biological target: T4, Aminopeptidase N (Plasmodium falciparum FcB1/Columbia, UniProt O96935); assay: P. falciparum M1AAP inhibitors, biochemical, fluorogenic H-Leu-NHMec substrate, 1536-well (AID 1445); set-up: species or system Plasmodium falciparum 3D7, 3D7
# T4 sequence (O96935 whole entry): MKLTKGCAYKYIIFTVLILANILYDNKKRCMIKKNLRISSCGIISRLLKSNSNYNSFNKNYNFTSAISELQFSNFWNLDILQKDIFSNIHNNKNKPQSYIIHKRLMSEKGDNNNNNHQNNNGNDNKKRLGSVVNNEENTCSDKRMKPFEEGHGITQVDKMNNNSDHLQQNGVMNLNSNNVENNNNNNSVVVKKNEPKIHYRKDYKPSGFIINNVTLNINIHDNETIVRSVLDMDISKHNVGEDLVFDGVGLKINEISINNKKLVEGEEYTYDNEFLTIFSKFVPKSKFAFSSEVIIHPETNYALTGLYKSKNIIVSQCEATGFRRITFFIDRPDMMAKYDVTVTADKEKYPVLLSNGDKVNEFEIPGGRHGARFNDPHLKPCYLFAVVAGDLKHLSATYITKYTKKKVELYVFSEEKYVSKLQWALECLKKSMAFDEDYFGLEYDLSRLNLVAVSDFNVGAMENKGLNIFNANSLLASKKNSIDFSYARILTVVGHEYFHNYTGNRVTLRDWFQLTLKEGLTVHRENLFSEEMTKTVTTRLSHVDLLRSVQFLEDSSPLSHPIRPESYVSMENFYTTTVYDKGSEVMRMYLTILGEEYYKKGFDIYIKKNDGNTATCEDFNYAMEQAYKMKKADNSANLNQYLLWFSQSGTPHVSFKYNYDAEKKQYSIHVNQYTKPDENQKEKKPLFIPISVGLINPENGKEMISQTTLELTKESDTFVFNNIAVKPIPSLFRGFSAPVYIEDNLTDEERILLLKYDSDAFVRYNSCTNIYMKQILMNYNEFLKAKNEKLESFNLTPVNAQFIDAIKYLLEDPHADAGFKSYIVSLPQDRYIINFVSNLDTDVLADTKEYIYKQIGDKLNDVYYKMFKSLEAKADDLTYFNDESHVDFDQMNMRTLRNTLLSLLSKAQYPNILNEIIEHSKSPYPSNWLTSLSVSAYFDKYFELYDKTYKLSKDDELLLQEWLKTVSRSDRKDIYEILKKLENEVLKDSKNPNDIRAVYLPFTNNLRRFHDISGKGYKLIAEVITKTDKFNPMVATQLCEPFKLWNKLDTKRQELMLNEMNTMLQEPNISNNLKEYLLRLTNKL
# [5] = biological target: T5, Polyadenylate-binding protein 1 (Homo sapiens, UniProt P11940); assay: PABP1 MLLE–PAM2 interaction inhibitors, dose response, miRNA deadenylation inhibitor project, biochemical, fluorescence polarization, Cy5-PAM2 peptide, secondary (AID 602260); assay type: functional; conditions: read-out: IC50_Mean
# [6] = biological target: T5, Polyadenylate-binding protein 1; assay: PABP1 MLLE–PAM2 binding inhibitor potency, dose response, biochemical, fluorescence polarization, FITC-PAM2 peptide (AID 602259); assay type: functional; conditions: read-out: IC50_Mean
# [7] = inhibitors of HIV Env-driven cell fusion, dose response, cherry-pick (AID 652057); assay type: functional, cell-based
# [8] = inhibitors of clade B AD8 Env fusion, dose response, cell-based, cherry-pick (AID 652062); assay type: functional;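 note: luciferase signal from cell-cell fusion driven by HIV-1 clade B AD8 Env; potency is for inhibitors of fusion seen as a drop in luminescence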
# [9] = growth suppression of PTEN-null colon cells, dose response, cell-based, HCT116 PTEN knockout (AID 1047); assay type: functional;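 note: HCT116 colon tumor cells with PTEN knocked out; cells exposed to compound for 60 hours before readout; potency for loss of cell viability measured by luminescence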
# [10] = growth suppression of beta-catenin-knockout colon cells, dose response, cell-based, HCT116, human colon tumor (AID 1045); assay type: functional;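 note: HCT116 colon tumor cells with beta catenin knocked out; cells exposed to compound for 60 hours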
# [11] = P. falciparum Dd2 growth inhibitors, dose response, SYBR Green, cherry-picked samples (AID 1159567); assay type: functional, cell-based
# Fatty acid synthase, sequence (P49327 whole entry, the tested form may be a part): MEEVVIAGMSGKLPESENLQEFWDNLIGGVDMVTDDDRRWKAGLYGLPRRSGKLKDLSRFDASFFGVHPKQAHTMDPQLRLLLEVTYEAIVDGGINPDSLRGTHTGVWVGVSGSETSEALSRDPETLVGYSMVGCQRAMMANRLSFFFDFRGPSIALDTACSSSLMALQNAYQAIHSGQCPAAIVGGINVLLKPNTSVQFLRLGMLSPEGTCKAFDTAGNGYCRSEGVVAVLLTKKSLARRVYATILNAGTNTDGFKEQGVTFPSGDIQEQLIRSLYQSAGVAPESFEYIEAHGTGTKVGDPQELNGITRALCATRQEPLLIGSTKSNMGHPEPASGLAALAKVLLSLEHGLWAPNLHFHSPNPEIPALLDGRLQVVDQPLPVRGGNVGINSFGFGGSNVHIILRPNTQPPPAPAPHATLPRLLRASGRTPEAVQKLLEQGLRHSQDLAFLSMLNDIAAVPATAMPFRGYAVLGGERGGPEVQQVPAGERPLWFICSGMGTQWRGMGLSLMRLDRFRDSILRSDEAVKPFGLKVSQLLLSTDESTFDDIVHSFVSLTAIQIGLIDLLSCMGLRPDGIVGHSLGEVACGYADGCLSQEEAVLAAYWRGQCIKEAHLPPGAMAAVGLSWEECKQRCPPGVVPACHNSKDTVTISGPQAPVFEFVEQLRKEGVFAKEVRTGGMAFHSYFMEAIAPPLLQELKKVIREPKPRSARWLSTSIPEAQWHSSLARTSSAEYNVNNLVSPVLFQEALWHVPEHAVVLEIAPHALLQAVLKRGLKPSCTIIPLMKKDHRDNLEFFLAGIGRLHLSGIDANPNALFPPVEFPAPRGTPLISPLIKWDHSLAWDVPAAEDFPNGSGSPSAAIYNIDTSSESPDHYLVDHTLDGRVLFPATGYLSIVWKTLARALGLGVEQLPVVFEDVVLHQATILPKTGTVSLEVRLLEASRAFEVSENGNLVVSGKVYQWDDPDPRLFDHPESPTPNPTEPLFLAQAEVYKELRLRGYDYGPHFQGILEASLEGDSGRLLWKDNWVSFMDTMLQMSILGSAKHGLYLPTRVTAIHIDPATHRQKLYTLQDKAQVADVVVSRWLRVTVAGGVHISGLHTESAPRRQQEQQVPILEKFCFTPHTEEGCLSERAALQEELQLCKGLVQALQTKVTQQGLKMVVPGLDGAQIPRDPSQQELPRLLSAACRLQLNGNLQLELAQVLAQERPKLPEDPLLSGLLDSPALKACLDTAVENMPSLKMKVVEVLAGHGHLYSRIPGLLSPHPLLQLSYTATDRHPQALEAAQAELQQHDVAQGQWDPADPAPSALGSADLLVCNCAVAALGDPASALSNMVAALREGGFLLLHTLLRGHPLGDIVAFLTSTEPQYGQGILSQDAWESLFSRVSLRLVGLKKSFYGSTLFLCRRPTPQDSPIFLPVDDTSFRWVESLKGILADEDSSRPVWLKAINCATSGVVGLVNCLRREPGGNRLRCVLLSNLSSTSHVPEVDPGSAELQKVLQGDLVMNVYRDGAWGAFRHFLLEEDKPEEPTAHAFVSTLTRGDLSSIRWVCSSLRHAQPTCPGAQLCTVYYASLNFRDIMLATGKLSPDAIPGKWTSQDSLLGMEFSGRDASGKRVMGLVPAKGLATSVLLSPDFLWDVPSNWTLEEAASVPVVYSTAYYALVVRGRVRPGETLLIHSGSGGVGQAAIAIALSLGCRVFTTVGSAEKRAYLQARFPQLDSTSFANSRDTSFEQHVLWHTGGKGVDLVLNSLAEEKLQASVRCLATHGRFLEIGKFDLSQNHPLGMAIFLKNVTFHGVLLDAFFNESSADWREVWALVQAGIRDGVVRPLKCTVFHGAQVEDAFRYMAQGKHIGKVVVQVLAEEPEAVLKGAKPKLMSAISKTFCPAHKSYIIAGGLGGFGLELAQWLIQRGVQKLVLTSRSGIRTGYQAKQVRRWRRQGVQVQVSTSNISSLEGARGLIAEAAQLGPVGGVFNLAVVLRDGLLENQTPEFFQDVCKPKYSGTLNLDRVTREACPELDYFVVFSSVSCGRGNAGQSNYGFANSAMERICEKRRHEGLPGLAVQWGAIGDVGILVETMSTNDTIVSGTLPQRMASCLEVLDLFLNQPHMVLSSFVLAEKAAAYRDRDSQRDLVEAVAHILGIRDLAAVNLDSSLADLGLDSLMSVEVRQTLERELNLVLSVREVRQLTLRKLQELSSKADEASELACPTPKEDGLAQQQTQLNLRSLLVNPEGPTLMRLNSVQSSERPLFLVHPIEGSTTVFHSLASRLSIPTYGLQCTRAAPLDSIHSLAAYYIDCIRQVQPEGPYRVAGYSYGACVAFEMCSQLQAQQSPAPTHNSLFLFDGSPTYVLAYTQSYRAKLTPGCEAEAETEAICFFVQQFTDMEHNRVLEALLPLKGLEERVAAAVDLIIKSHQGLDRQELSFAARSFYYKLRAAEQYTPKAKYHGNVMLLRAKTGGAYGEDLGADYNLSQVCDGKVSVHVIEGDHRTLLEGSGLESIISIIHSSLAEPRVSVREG
# T5 sequence (P11940 whole entry): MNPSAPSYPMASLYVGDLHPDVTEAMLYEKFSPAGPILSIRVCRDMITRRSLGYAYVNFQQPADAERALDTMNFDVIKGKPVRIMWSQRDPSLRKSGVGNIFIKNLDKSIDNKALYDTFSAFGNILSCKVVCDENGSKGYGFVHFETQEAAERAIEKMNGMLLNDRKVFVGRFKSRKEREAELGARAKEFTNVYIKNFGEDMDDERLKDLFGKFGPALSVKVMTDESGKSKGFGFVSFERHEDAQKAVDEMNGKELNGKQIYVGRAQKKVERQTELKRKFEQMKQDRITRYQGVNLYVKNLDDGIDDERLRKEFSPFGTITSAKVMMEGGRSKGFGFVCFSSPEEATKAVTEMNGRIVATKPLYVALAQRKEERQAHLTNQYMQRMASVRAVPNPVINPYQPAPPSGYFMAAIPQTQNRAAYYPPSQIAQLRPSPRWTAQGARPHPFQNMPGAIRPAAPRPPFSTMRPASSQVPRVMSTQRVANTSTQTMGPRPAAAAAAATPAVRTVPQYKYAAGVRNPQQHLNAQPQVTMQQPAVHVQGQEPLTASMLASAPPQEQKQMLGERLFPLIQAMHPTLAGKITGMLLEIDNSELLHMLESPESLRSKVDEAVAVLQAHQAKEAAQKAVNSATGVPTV
compound,measurement,setting,value
O=C(NN=C(S)Nc1ccc(Cl)cc1)c1ccccc1OC(F)F,EC50,[1],72.6 µM (active)
same,EC50,[2],6.72 µM (active)
O=C(COc1ccc2c(-c3ccccc3)cc(=O)oc2c1)N[C@@H](Cc1c[nH]c2ccc(O)cc12)C(=O)O,IC50,Fatty acid synthase,6.9 µM (active)
COc1cc2nc(CSc3nc(-c4ccc(F)cc4)cs3)nc(O)c2cc1OC,EC50,[3],> 150 µM (not active)
same,EC50,Streptokinase A,> 150 µM (not active)
same,EC50,Streptococcus,> 150 µM (not active)
same,EC50,[4],> 260 µM (inactive)
CC1(C)c2cc(O)ccc2OC1N1CCOCC1 (configuration not stated),EC50,[4],> 260 µM (inactive)
Cc1cc(O)nc(-n2ncc(C#N)c2N)n1,EC50,[4],> 260 µM (inactive)
CN(C)CCc1nc2ccccc2c(=O)n1-c1ccccc1,EC50,[4],> 260 µM (inactive)
CCN(CCCNC(=O)CCCN1C(=O)COc2ccc(C)cc21)c1cccc(C)c1,EC50,[4],> 260 µM (inactive)
COc1cc(OC)c(OC)cc1CN(C)CCc1ccccn1,EC50,[4],> 260 µM (inactive)
Cc1cc(C)n2nc(S(=O)(=O)Nc3c(Cl)cccc3Cl)nc2n1,IC50,cells,5.34 µM (active)
Cc1ccc(-c2nnn(CC(=O)Nc3ccc4nn(-c5ccccc5)nc4c3)n2)o1,IC50,Estrogen receptor,> 50 µM (not active)
Cc1cccc(C2c3[nH]c4ccccc4c3CCN2C(=O)c2cc(-c3cccn3C)[nH]n2)n1 (configuration not stated),EC50,[1],> 160 µM (inconclusive)
same,EC50,[2],3.22 µM (active)
O=C(O)/C(=C\c1ccc(-c2ccc(F)cc2)o1)c1ccccc1,IC50,Aminopeptidase N,51.4 µM (active)
COc1cccc(NC(=O)c2ccc3nc(C)sc3c2)c1,EC50,[1],> 160 µM (inconclusive)
same,EC50,[2],1.53 µM (active)
COc1cccc(-c2nc(=S)c3c(n2CCCO)CCCC3)c1,IC50,[5],> 66 µM (inactive)
same,IC50,[6],> 66 µM (inactive)
CCC(=O)Nc1nonc1-c1nc2ccccc2n1N(C(=O)CC)C(=O)CC,IC50,Estrogen receptor,> 50 µM (not active)
Cc1ccc(NC(=O)c2cnn(-c3ccccc3)c2C)cc1,EC50,[4],> 260 µM (inconclusive)
Cc1ccc(CNC(=O)CSc2nc3ccsc3c(=O)n2NC(=O)c2ccccc2)cc1,IC50,Aminopeptidase N,11.1 µM (active)
COc1ccc(-c2[nH]nc(C)c2-c2cnn(-c3ccccc3)c2)c(O)c1,EC50,[1],> 160 µM (inactive)
same,EC50,[2],3.77 µM (active)
CCOC(=O)N1CCN(C(=O)C(=O)NNC(=O)COc2ccc(Cl)cc2)CC1,IC50,Aminopeptidase N,106 µM (active)
CCC(=O)c1ccc(OCC(=O)OCC(=O)N2CCc3ccccc3C2)cc1,IC50,cells,17.3 µM (active)
O=S(=O)(c1cccc(-c2cn3cccnc3n2)c1)N1CCCCCC1,IC50,Estrogen receptor,22.3 µM (active)
CSCCC1NC2(C(=O)Nc3c(C)cc(Cl)cc32)[C@@H]2C(=O)N(C3CCCC3)C(=O)[C@H]12 (some centres not stated),EC50,[1],> 150 µM (inactive)
same,EC50,[2],> 38 µM (not active)
CCCn1nnc(NC(=O)COc2ccc(CC)cc2)n1,IC50,cells,27.6 µM (active)
CCOc1ccccc1OCCN1CCC(Cc2ccccc2)CC1,EC50,[1],> 150 µM (inactive)
same,EC50,[2],> 38 µM (not active)
O=C(Nc1nnc(C2=COCCO2)o1)c1ccc(F)cc1,IC50,cells,6.55 µM (active)
O=C(NCc1ccc2c(c1)OCO2)C1CCCN(S(=O)(=O)c2cccnc2)C1 (configuration not stated),IC50,Aminopeptidase N,70.7 µM (active)
O=C(Nc1nnc(SCc2ccccc2Cl)s1)c1cccc([N+](=O)[O-])c1,IC50,Fatty acid synthase,11 µM (active)
CSc1nc(NCc2ccco2)c2ccccc2n1,IC50,Estrogen receptor,> 50 µM (not active)
Brc1ccc(-c2nnc(-c3cccnc3)c3conc23)cc1,IC50,Estrogen receptor,6.62 µM (active)
COC(=O)Cn1c(=O)c2c(nc3n2CC(C)CN3CCc2ccccc2)n(C)c1=O (configuration not stated),EC50,[4],> 260 µM (inactive)
COc1ccccc1-c1ccc2c(c1)O[C@H](CN(C)S(=O)(=O)c1ccc(C)cc1)[C@H](C)CN([C@@H](C)CO)S2(=O)=O,AC50,[7],2.84 µM (active)
same,AC50,[8],2.97 µM (active)
N#C/C(=C(\O)Nc1ccc(Cl)cc1)c1nc2ccccc2[nH]1,IC50,Estrogen receptor,27.1 µM (active)
same,EC50,[9],31.9 µM (active)
same,EC50,[10],35.1 µM (active)
COc1ccc2c3c(n(C)c2c1)[C@@H](CO)N(C(=O)Nc1ccc(F)cc1)CC31CN(C(=O)c2ccccc2F)C1,AC50,[11],4.35 µM (active)
COc1ccc(-c2ccc([C@@H]3[C@@H](CO)N4CCCCN(C(=O)c5ccc6c(c5)OCO6)C[C@@H]34)cc2)cc1,AC50,[11],5.97 µM (active)
COCC(=O)N1CC2(C1)CN(Cc1ccccc1F)[C@@H](CO)c1[nH]c3cc(OC)ccc3c12,AC50,[11],6.55 µM (active)
COc1ccc(NC(=O)N(C)C[C@@H]2Oc3cc(-c4ccc(C)cc4)ccc3S(=O)(=O)N([C@@H](C)CO)C[C@H]2C)cc1,AC50,[11],5.06 µM (active)
CO[C@@H]1CN(C)C(=O)c2cc(NC(=O)c3ccc(Oc4ccccc4)cc3)ccc2OC[C@H](C)NC[C@@H]1C,AC50,[11],5.99 µM (active)
CO[C@H]1CN(C)C(=O)c2cc(NC(=O)c3ccccc3F)ccc2OC[C@H](C)N(C)C[C@H]1C,AC50,[11],> 39 µM (inactive)
CCS(=O)(=O)N1CCCCN2[C@H](CO)[C@H](c3ccc(-c4cccc(C#N)c4)cc3)[C@@H]2C1,AC50,[11],12.5 µM (active)
